From patent US7592005B2, “Monoclonal antibody” (Kirin Beer Kabushiki Kaisha, priority 2000, dated 2009)

Tested on: IM9 cells
Assay: Cellular cytotoxicity on human myeloma cell line IM9 (MTS)
Settings: read-out: IC50, cellular cytotoxicity, free maytansine derivative
Procedure: In the same manner as in Example 11, the reactivity to the human myeloma cell line IM9 cell (ATCC CCL-159) was investigated. […] Thereafter, a solution of MTS (3-(4,5-dimethylthiazol-2-yl)-5-(3-carboxymethoxyphenyl)-2-(4-sulphophenyl)-2H-tetrazolium, Promega) was added to each well in amounts of 20 μl each, followed by culturing for an additional 2 hours. Subsequently, the absorbance at 490 nm of the surviving cells was assayed using a microplate reader (MTP-300, Corona Electric Co., Ltd.).

Q: How did the IC50 turn out when COc1cc2cc(c1Cl)N(C)C(=O)C[C@H](OC(=O)[C@H](C)N(C)C(=O)CCSSC)[C@]1(C)O[C@H]1[C@H](C)[C@@H]1C[C@@](O)(NC(=O)O1)[C@H](OC)/C=C/C=C(\C)C2 [May-SS-Me] was run?
A: 10 nM
